This note sets out measurements from patent EP4775208A1, “USE OF PRMT5 INHIBITOR IN TREATMENT OF TUMORS OR CANCERS” (Apeiron Therapeutics (Hong Kong) Ltd., priority 2023, dated 2025).

Experiment [1] concerns HCT-116 MTAP(-/-) deficient cells. Briefly: Inhibition of proliferation of HCT-116 MTAP(-/-) deficient cells (Cell-Titer Glo). In kind it is cell-based. As to conditions: 8 days. As to the method:
Test 1: Compound's inhibitory activity on proliferation of HCT-116 MTAP(-/-) deficient cells.
Materials and Cells: HCT-116 MTAP(-/-) deficient cells obtained from Kyinno Bio (China); RPMI-1640 medium, fetal bovine serum, and penicillin-streptomycin purchased from Thermo Fisher Scientific (America); 384-well plates from PerkinElmer (America); Cell-Titer Glo assay kit from Promega (America).
Cell Culture: HCT116 MTAP(-/-) deficient cells were cultured in RPMI 1640 medium containing 10% fetal bovine serum and 1% penicillin-streptomycin at 37°C, 5% CO2. Only cells in logarithmic growth phase were used for experiments.
Cell Proliferation Inhibition Assay: The compound's inhibitory activity on HCT-116 MTAP(-/-) deficient cells was assessed using the Cell-Titer Glo assay kit. Adjusting cell concentration, 40 µL was seeded into a 384-well plate and cultured overnight at 37°C, 5% CO2. Each well received 40 nL of the compound, achieving concentrations from 0 to 10,000 nM (starting concentration 10,000 nM, 3-fold dilution, 10 points), with 0.1% DMSO. The cell plate was incubated for 8 days at 37°C, 5% CO2. Cell-Titer Glo reagent (40 µL) was added to measure cell viability.

The subject of experiment [2] is HCT-116 MTAP wild-type cells. As to the kind of experiment: Inhibition of proliferation of HCT-116 MTAP wild-type cells (Cell-Titer Glo). The experiment is classed as cell-based. The settings on record: 8 days. As to the method: Test 2: Compound's inhibitory activity on proliferation of HCT-116 MTAP wild-type cells.
Materials and Cells: HCT-116 MTAP wild-type cells obtained from Kyinno Bio (China); RPMI-1640 medium, fetal bovine serum, and penicillin-streptomycin purchased from Thermo Fisher Scientific (America); 384-well plates from PerkinElmer (America); Cell-Titer Glo assay kit from Promega (America).
Cell Culture: HCT116 MTAP wild-type cells were cultured in RPMI 1640 medium containing 10% fetal bovine serum and 1% penicillin-streptomycin at 37°C, 5% CO2. Only cells in logarithmic growth phase were used for experiments.
Cell Proliferation Inhibition Assay: The compound's inhibitory activity on HCT-116 MTAP wild-type cells was assessed using the Cell-Titer Glo assay kit. Adjusting cell concentration, 40 µL was seeded into a 384-well plate and cultured overnight at 37°C, 5% CO2. Each well received 40 nL of the compound, achieving concentrations from 0 to 10,000 nM (starting concentration 10,000 nM, 3-fold dilution, 10 points), with 0.1% DMSO. The cell plate was incubated for 8 days at 37°C, 5% CO2. Cell-Titer Glo reagent (40 µL) was added to measure cell viability.

The IC50 is the concentration needed to halve the response being measured. High values mean weaker potency in that assay, low ones greater potency in that assay. In the case of `CN(C(=O)c1ccc2nc(N)c3cncn3c2c1)[C@@H]1COc2cc(NS(=O)(=O)C(F)(F)F)ccc21` [Example 76, (S)-4-amino-N-methyl-N-(6-((trifluoromethyl)sulfonamido)-2,3-dihydrobenzofuran-3-yl)imida zo[1,5-a]quinoxaline-8-carboxamide], the IC50 is above 3000 nM in experiment [1] (Homo sapiens, HCT-116, 192 h) and above 10000 nM in experiment [2] (Homo sapiens, HCT-116, 192 h).
For `CN(C(=O)c1ccc2nc(N)c3cncn3c2c1)[C@@H]1COc2cc(C(N)=O)ccc21` [Example 53, (S)4-amino-N-(6-carbamoyl-2,3-dihydrobenzofuran-3-yl)-N-met hylimidazo[1,5-a]quin oxaline-8-carboxamide] the same measures were above 3000 nM and above 10000 nM.
Regarding `CN(C(=O)c1cc2c(cc1F)nc(N)c1cncn12)[C@@H]1CCOc2cc(-c3ccnn3C)ccc21` [Example 115, (R)-4-amino-7-fluoro-N-methyl-N-(7-(1-methyl-1H-pyrazol-5-yl)chroman-4-yl)imidazo[1,5-a]quinoxaline-8-carboxamide], the half-maximal inhibitory concentration (IC50) in experiment [1] (Homo sapiens, HCT-116, 192 h) was 84.3 nM; in experiment [2] (Homo sapiens, HCT-116, 192 h), above 10000 nM.
In the case of “(R)-4-amino-N-(6-cya no-2,3-dihydrobenzof uran-3-yl)-N-cyclopro pylimidazo[1,5-a]quin oxaline-8-carboxamid e [Example 91]”, the IC50 was 2180 nM in experiment [1] and above 20000 nM in experiment [2].
For `CN(C(=O)c1ccc2nc(N)c3cncn3c2c1)C1COc2nc(C(F)(F)F)ccc21` (stereo not shown) [Example 7, 4-amino-N-methyl-N-(6-(trifluoromethyl)-2,3-dihydrofuro[2,3-b]pyridin-3-yl)imidazo[1,5-a]quinoxaline-8-car boxamide], the half-inhibitory concentration (IC50) in experiment [1] (Homo sapiens, HCT-116, 192 h) is 141 nM; in experiment [2] (Homo sapiens, HCT-116, 192 h), above 10000 nM.
With `Cc1ncc(-c2ccc3c(c2)OCC3N(C(=O)c2ccc3nc(N)c4cncn4c3c2)C2CC2)cn1` (stereo not shown) [Example 72, 4-amino-N-cyclopropyl-N-(6-(2-methylpyrimidin-5-yl)-2,3-dihydrobenzofuran-3-yl)imi dazo[1,5-a]quinoxaline-8-carboxamide], the IC50 in experiment [1] (Homo sapiens, HCT-116, 192 h) was 117 nM; in experiment [2] (Homo sapiens, HCT-116, 192 h) it was above 20000 nM.
On the same counts, the results for `CN(C(=O)c1ccc2nc(N)c3cncn3c2c1)[C@@H]1CCc2cc(C(F)(F)F)ncc21` [Example 23, (R)-4-amino-N-methy 1-N-(3-(trifluoromethy 1)-6,7-dihydro-5H-cyclopenta[c]pyridin-7-yl)imidazo[1,5-a]quinox aline-8-carboxamide] are 120 nM and above 10000 nM.
With `Cc1ncn2c1c(N)nc1ccc(C(=O)N(C3CC3)C3COc4cc(C(F)(F)F)ccc43)cc12` (stereo not shown) [Example 69, 4-amino-N-cyclopropyl-3-methyl-N-(6-(trifluoromethyl)-2,3-dihydrobenzofuran-3-yl)i midazo[1,5-a]quinoxa line-8-carboxamide], the IC50 came to 87.1 nM in experiment [1] (Homo sapiens, HCT-116, 192 h) and 5020 nM in experiment [2] (Homo sapiens, HCT-116, 192 h).
For `CN(C(=O)c1ccc2nc(N)c3cncn3c2c1)[C@@H]1COc2ccc(F)cc21` [Example 66, (S)-4-amino-N-(5-fluoro-2,3-dihydrobenzofuran-3-yl)-N-methyli midazo[1,5-a]quinoxa line-8-carboxamide] the same measures were 2260 nM and above 20000 nM.
For `C[C@@H]1OC[C@@H](N(C)C(=O)c2ccc3nc(N)c4cncn4c3c2)c2ccc(F)cc21` (single isomer, unassigned) [Example 95] the same measures were 211 nM and above 10000 nM.
On the same counts, the results for `CN(C(=O)c1ccc2nc(N)c3cncn3c2c1)[C@@H]1CSc2cc(C(F)(F)F)ccc21` (single isomer, unassigned) [Example 102] are 7.9 nM and 1990 nM.
In the case of `CC1OC[C@@H](N(C)C(=O)c2ccc3nc(N)c4cncn4c3c2)c2cc(C(F)(F)F)ccc21` (stereo partly drawn) [Example 19, 4-amino-N-methyl-N-((4S)-1-methyl-6-(trifluoromethyl)isochroman-4-yl)imidazo[1,5-a]quinoxaline-8-carbox amide], the IC50 in experiment [1] (Homo sapiens, HCT-116, 192 h) was found to be 23.2 nM; in experiment [2] (Homo sapiens, HCT-116, 192 h), 2230 nM.
As to `Nc1nc2ccc(C(=O)N(C3CC3)C3COc4cc(C(F)(F)F)ccc43)cc2n2cncc12` (stereo not shown) [Example 73, 4-amino-N-cyclopropyl-N-(6-(trifluoromethyl)-2,3-dihydrobenzof uran-3-yl)imidazo[1,5-a]quinoxaline-8-carb oxamide], the IC50 in experiment [1] (Homo sapiens, HCT-116, 192 h) was found to be 55.5 nM; in experiment [2] (Homo sapiens, HCT-116, 192 h), 4620 nM.
Regarding `CN(C(=O)c1cc2c(cn1)nc(N)c1cncn12)C1CCc2ccccc21` (stereo not shown) [Example 125, 4-amino-N-(2,3-dihydro-1H-inden-1-yl)-N-methylimidazo[1,5-a] pyrido[3,4-e]pyrazine-8-carboxamide], the IC50 in experiment [1] (Homo sapiens, HCT-116, 192 h) is 2450 nM; in experiment [2] (Homo sapiens, HCT-116, 192 h), above 10000 nM.
In the case of `CN(C(=O)c1cc2c(cc1Cl)nc(N)c1cncn12)[C@@H]1COc2cc(C(F)(F)F)ccc21` [Example 27, (S)-4-amino-7-chloro-N-methyl-N-(6-(trifluoromethyl)-2,3-dihydrobenzofuran-3-yl)imi dazo[1,5-a]quinoxaline-8-carboxamide], the IC50 in experiment [1] (Homo sapiens, HCT-116, 192 h) was 4.4 nM; in experiment [2] (Homo sapiens, HCT-116, 192 h), 842 nM.
With `CN(C(=O)c1ccc2nc(N)c3cncn3c2c1)C1COc2ccccc21` (stereo not shown) [Example 1, 4-amino-N-(2,3-dihydrobenzofuran-3-yl)-N-methylimidazo[1,5-a]quinoxaline-8-carboxamide], the IC50 is 2310 nM in experiment [1] (Homo sapiens, HCT-116, 192 h) and above 10000 nM in experiment [2] (Homo sapiens, HCT-116, 192 h).
Consider “(S)-4-amino-N-(6-bromo-2,3-dihydrobenzofuran-3-yl)-N-cyclopropylimidazo[1,5-a]quinoxaline-8-carboxamide [Example 82]”, for which the IC50 in experiment [1] was 52.9 nM; in experiment [2], 1920 nM.
In the case of “(R)-4-amino-N-(6-bromo-2,3-dihydrobenzofuran-3-yl)-N-cyclopropylimidazo[1,5-a]quinoxaline-8-carboxamide [Example 81]”, the IC50 was 1790 nM in experiment [1] and 2360 nM in experiment [2].
For `Cc1ncn2c1c(N)nc1ccc(C(=O)N(C3CC3)[C@@H]3COc4cc(C(F)(F)F)ccc43)cc12` (single isomer, unassigned) [Example 86], the IC50 in experiment [1] (Homo sapiens, HCT-116, 192 h) is 61.1 nM; in experiment [2] (Homo sapiens, HCT-116, 192 h), 1330 nM.
With `Nc1nc2ncc(C(=O)N(C3CC3)C3COc4cc(C(F)(F)F)ccc43)cc2n2cncc12` (stereo not shown) [Example 126, 4-amino-N-cyclopropyl-N-(6-(trifluoromethyl)-2,3-dihydrobenzof uran-3-yl)imidazo[1,5-a]pyrido[2,3-e]pyrazine-8-carboxamide], the IC50 in experiment [1] (Homo sapiens, HCT-116, 192 h) was 592 nM; in experiment [2] (Homo sapiens, HCT-116, 192 h), above 20000 nM.
For `CN(C(=O)c1cc2c(cc1F)nc(N)c1cncn12)[C@H]1COC(C)(C)c2cc(C(F)(F)F)ccc21` (single isomer, unassigned) [Example 134] the same measures were 623 nM and 5890 nM.
As to `CN(C(=O)c1cc2c(cc1F)nc(N)c1cncn12)[C@@H]1COc2cc(OC(F)(F)F)ccc21` [Example 57, (S)-4-amino-7-fluoro-N-methyl-N-(6-(trifluoromethoxy)-2,3-dihydrobenzofuran-3-yl)i midazo[1,5-a]quinoxa line-8-carboxamide], the IC50 turned out to be 10.5 nM in experiment [1] (Homo sapiens, HCT-116, 192 h) and 1870 nM in experiment [2] (Homo sapiens, HCT-116, 192 h).
“(S)-4-amino-N-(6-cya no-2,3-dihydrobenzof uran-3-yl)-N-cyclopro pylimidazo[1,5-a]quin oxaline-8-carboxamid e [Example 92]”: the concentration for half-maximal inhibition (IC50) in experiment [1] came out at 46.6 nM; in experiment [2] it was 4750 nM.
